Measurements from patent US20150089682A1, “ALS Inhibitor Herbicide Tolerant B. Napus Mutants” (priority 2012, published 2015).

How the values were obtained:
[1] = tested on: ALS enzymes in leaves of Brassica lines homozygous for HETO108, HETO121 or both; assay: ALS enzyme activity in leaves; type: biochemical, Brassica napus; conditions: FIG. 3
Protocol: (§1) The inhibitory effect of ALS inhibiting herbicides on ALS enzymes encoded by the different mutant AHAS alleles was tested in leaf material essentially as described by Shimizu et al, 2008, Plant Physiol. 147:1976.

[2] = tested on: ALS enzyme in leaves of wild-type Brassica lines; assay: ALS enzyme activity in leaves; type: biochemical, Brassica napus; conditions: wild-type leaves (row IV) compared with mutant lines (rows I-III), FIG. 3
Protocol: as §1

[3] = tested on: spring oilseed rape variety ABILITY; assay: Herbicide tolerance in the field, visible phytotoxicity; type: in vivo, Brassica napus; conditions: ABILITY, field, 18 days after application, 0%=no phytotoxic effects, 100%=all plants killed
Description: (§2) Seeds of spring oilseed rape homozygous for HETO108 and HETO121 were sown in a field according to typical practical agricultural methods. The registered spring oilseed rape variety ABILITY served as a comparison. All plants were cultivated up to BBCH stage 14 (four true leaves of the oilseed rape plants). Afterwards, the herbicides mentioned in table 2 have been applied to the oilseed rape plants by using specific spray equipment for small plot applications. The water amount used was 200 L/ha.

[4] = tested on: spring oilseed rape homozygous for HETO108 and HETO121; assay: as above; type: in vivo, Brassica napus; conditions: HETO108-HETO121, field, 18 days after application, 0%=no phytotoxic effects, 100%=all plants killed
Description: as §2

[5] = biological target: T1, Arabidopsis thaliana W574L-mutant ALS (Arabidopsis thaliana, UniProt P17597, E575Q/W574L); assay: biochemical; conditions: for Resistance Factor W574L: relative to WT, from measured pI50
T1 construct: vector-encoded N-terminal fusion of pET-32a(+) (Trx/His/S tag by own knowledge); made in house; host or cells: Escherichia coli AD494
Protocol: (§3) Bacteria were grown at 37° C. in LB-medium containing 100 mg/1 carbenicillin and 25 mg/1 canamycin, induced with 1 mM isopropyl-β-D-thiogalactopyranoside at an OD600 of 0.6, cultivated for 16 hours at 18° C. and harvested by centrifugation. Bacterial pellets were resusupended in 100 mM sodium phosphate buffer pH 7.0 containing 0.1 mM thiamine-pyrophosphate, 1 mM MgCl2, and 1 μM FAD at a concentration of 1 gram wet weight per 25 ml of buffer and disrupted by sonification. The crude protein extract obtained after centrifugation was used for ALS activity measurements.
(§4) Assays were initiated by adding enzyme and terminated after 75 min incubation at 30° C. by the addition to 40 μl 0.5 M H2SO4. […] Reaction velocities were tiffed to the Michalis-Menten equation with the XLFit curve fitting program.

[6] = biological target: T2, Arabidopsis thaliana P197S-mutant ALS (Arabidopsis thaliana, UniProt P17597, E575Q/P197S); assay: biochemical; conditions: for Resistance Factor P197S: relative to WT, from measured pI50
T2 construct: vector-encoded N-terminal fusion of pET-32a(+) (Trx/His/S tag by own knowledge); made in house; host or cells: Escherichia coli AD494
Protocol: as §3, §4

[7] = biological target: T3, mixture of S653N and W574L ALS enzymes (Arabidopsis thaliana, UniProt P17597); type: biochemical; conditions: for Resistance Factor S653N & W574L: relative to WT, calculated
T3 construct: crude E. coli extract was used
Protocol: as §4
(§5) To characterize the response of a mixture of two different ALS enzymes to a given ALS inhibitor the following assumptions were made: • a inhibition is competitive and reversible • b. in the absence of inhibitor, equal activities of the ALS (mutant) enzymes 1 and 2 are present
(§6) Using experimentally determined pI50-values for various ALS-inhibiting herbicides, enzyme activities at different inhibitor concentrations were calculated (see Theory) for each ALS enzyme. Total ALS activity at any given inhibitor concentration is the sum of the activity of (mutant) enzyme 1 and (mutant) enzyme 2. If the experimentally determined pI50-value was <4, pI50=3.0 was used for the calculations. If the calculated pI50-value was 3.0, the pI50 was redefined as <4.

[8] = biological target: T4, mixture of P197S and W574L ALS enzymes (Arabidopsis thaliana, UniProt P17597); type: biochemical; conditions: for Resistance Factor P197S & W574L: relative to WT, calculated
T4 construct: crude E. coli extract was used
Protocol: as §4, §5, §6

[9] = biological target: T5, Arabidopsis thaliana S653N-mutant ALS (Arabidopsis thaliana, UniProt P17597, E575Q/S653N); assay: biochemical
T5 construct: vector-encoded N-terminal fusion of pET-32a(+) (Trx/His/S tag by own knowledge); made in house; host or cells: Escherichia coli AD494
Protocol: as §3, §4

[10] = biological target: T6, Arabidopsis thaliana wild-type ALS (Arabidopsis thaliana, UniProt P17597, E575Q); assay: biochemical; conditions: measured; crude extract of E. coli expressed enzyme; read-out: pI50 WT (converted)
T6 construct: vector-encoded N-terminal fusion of pET-32a(+) (Trx/His/S tag by own knowledge); made in house; host or cells: Escherichia coli AD494
Protocol: as §3, §4

[11] = Kinetic parameters of enzymatic activity of AHAS mutants; type: biochemical, Arabidopsis thaliana; conditions: pyruvate varied 0-120 mM
Protocol: as §3, with “The coding sequences of the Arabidopsis thaliana wild-type and P197S-, W574L-, and S653N-mutant ALS genes were cloned into Novagen pET-32a(+) vectors and the vectors transformed into Escherichia coli AD494 according to the instructions of the manufacturer. Bacteria were” for “Bacteria were”
ALS assays were carried out in 96-well microtiter plates using a modification of the procedure described by Ray (1984), Plant Physiol 75:827-831. The reation mixture contained 20 mM potassium phosphate buffer pH 7.0, 20 mM sodium pyruvate, 0.45 mM thiamine-pyrophosphate, 0.45 mM MgCl2, 9 μM FAD, ALS enzyme and various concentrations of ALS inhibitors in a final volume of 90 μl. Assays were initiated by adding enzyme and terminated after 75 min incubation at 30° C. by the addition to 40 μl 0.5 M H2SO4. […] The pI50 values measured for the different mutant AHAS proteins and calculated for the mixtures of two different AHAS enzymes are shown in Table 3. […] Reaction velocities were tiffed to the Michalis-Menten equation with the XLFit curve fitting program.

[12] = Brassica napus, topical, 432 h, AI dose rate 50 gai/ha, read-out: % phytotox
[13] = calculated for a mixture of equal activities of the two enzymes, pI50=3.0 used where measured <4

| Molecule | inhibition of ALS enzyme activity in leaves [2] | Resistance Factor W574L [5] | Resistance Factor P197S [6] | Resistance Factor S653N & W574L [7] | Resistance Factor P197S & W574L [8] | Km [11] [mM] | Vmax [11] | further results |
| --- | --- | --- | --- | --- | --- | --- | --- | --- |
| COC(=O)c1csc(C)c1S(=O)(=O)NC(=O)n1nc(OC)n(C)c1=O [Thiencarbazone-methyl, thiencarbazone-methyl] | inhibited at lower concentrations of the herbicides than in leaves comprising the mutant AHAS alleles | 1259 | 1259 | 316 | 1259 |  |  | herbicide tolerance of ALS activity in leaves, TCM compared with FS ([1]; mutant lines (rows I-III)): the herbicide tolerance is higher for TCM than for FS; % phytotox ([3]; AI dose rate 30 gai/ha): 100%; % phytotox ([4]; AI dose rate 30 gai/ha): 3% |
| COc1cc(OC)nc(NC(=O)NS(=O)(=O)c2cc(NC=O)ccc2C(=O)N(C)C)n1 [Foramsulfuron, foramsulfuron] | inhibited at lower concentrations of the herbicides than in leaves comprising the mutant AHAS alleles | 7943 | 16 | 316 | 398 |  |  | tolerance of ALS activity in leaves by mutation ([1]; P197S (row II) compared with W574L (row III) and both (row I)): the tolerance in lines with the P197S mutation (row II) is lower than the tolerance in lines with the W574L mutation (row III) and with both the P197S and W574L mutation (row I); pest or weed control at 50 g/ha [3, 12]: 99%; pest or weed control at 50 g/ha [4, 12]: 28%; IC50 ([5]; measured, crude extract of E. coli expressed enzyme, read-out: pI50 W574L (converted)): 50.1 µM; IC50 ([9]; measured, crude extract of E. coli expressed enzyme, read-out: pI50 S653N (converted)): 0.0631 µM; Resistance Factor S653N ([9]; relative to WT, from measured pI50): 10; IC50 ([6]; measured, crude extract of E. coli expressed enzyme, read-out: pI50 P197S (converted)): 0.1 µM; IC50 [10]: 0.00631 µM; pI50 S653N & W574L [7, 13]: 5.7; pI50 P197S & W574L [8, 13]: 5.6 |
| P197S: Arabidopsis thaliana P197S-mutant ALS expressed in Escherichia coli, crude protein extract (protein, UniProt P17597 56-670, looked up, variant P197S) Acetolactate synthase, …: SSSPSSISAVLNTTTNVTTTPSPTKPTKPETFISRFAPDQPRKGADILVEALERQGVETVFAYPGGASMEIHQALTRSSSIRNVLPRHEQGGVFAAEGYARSSGKPGICIATSGPGATNLVSGLADALLDSVPLVAITGQVSRRMIGTDAFQETPIVEVTRSITKHNYLVMDVEDIPRIIEEAFFLATSGRPGPVLVDVPKDIQQQLAIPNWEQAMRLPGYMSRMPKPPEDSHLEQIVRLISESKKPVLYVGGGCLNSSDELGRFVELTGIPVASTLMGLGSYPCDDELSLHMLGMHGTVYANYAVEHSDLLLAFGVRFDDRVTGKLEAFASRAKIVHIDIDSAEIGKNKTPHVSVCGDVKLALQGMNKVLENRAEELKLDFGVWRNELNVQKQKFPLSFKTFGEAIPPQYAIKVLDELTDGKAIISTGVGQHQMWAAQFYNYKKPRQWLSSGGLGAMGFGLPAAIGASVANPDAIVVDIDGDGSFIMNVQELATIRVENLPVKVLLLNNQHLGMVMQWEDRFYKANRAHTFLGDPAQEDEIFPNMLLFAAACGIPAARVTKKADLREAIQTMLDTPGPYLLDVICPHQEHVLPMIPSGGTFNDVITEGDGRIKY |  |  |  |  |  | 5.5 ± 0.8 | 50.0 ± 6.1 ΔE/min mg |  |
| W574L: Arabidopsis thaliana W574L-mutant ALS expressed in Escherichia coli, crude protein extract (protein, UniProt P17597 56-670, looked up, variant W574L) Acetolactate synthase, …: SSSPSSISAVLNTTTNVTTTPSPTKPTKPETFISRFAPDQPRKGADILVEALERQGVETVFAYPGGASMEIHQALTRSSSIRNVLPRHEQGGVFAAEGYARSSGKPGICIATSGPGATNLVSGLADALLDSVPLVAITGQVPRRMIGTDAFQETPIVEVTRSITKHNYLVMDVEDIPRIIEEAFFLATSGRPGPVLVDVPKDIQQQLAIPNWEQAMRLPGYMSRMPKPPEDSHLEQIVRLISESKKPVLYVGGGCLNSSDELGRFVELTGIPVASTLMGLGSYPCDDELSLHMLGMHGTVYANYAVEHSDLLLAFGVRFDDRVTGKLEAFASRAKIVHIDIDSAEIGKNKTPHVSVCGDVKLALQGMNKVLENRAEELKLDFGVWRNELNVQKQKFPLSFKTFGEAIPPQYAIKVLDELTDGKAIISTGVGQHQMWAAQFYNYKKPRQWLSSGGLGAMGFGLPAAIGASVANPDAIVVDIDGDGSFIMNVQELATIRVENLPVKVLLLNNQHLGMVMQLEDRFYKANRAHTFLGDPAQEDEIFPNMLLFAAACGIPAARVTKKADLREAIQTMLDTPGPYLLDVICPHQEHVLPMIPSGGTFNDVITEGDGRIKY |  |  |  |  |  | 6.9 ± 0.2 | 54.4 ± 2.8 ΔE/min mg |  |
| S653N: Arabidopsis thaliana S653N-mutant ALS expressed in Escherichia coli, crude protein extract (protein, UniProt P17597 56-670, looked up, variant S653N) Acetolactate synthase, …: SSSPSSISAVLNTTTNVTTTPSPTKPTKPETFISRFAPDQPRKGADILVEALERQGVETVFAYPGGASMEIHQALTRSSSIRNVLPRHEQGGVFAAEGYARSSGKPGICIATSGPGATNLVSGLADALLDSVPLVAITGQVPRRMIGTDAFQETPIVEVTRSITKHNYLVMDVEDIPRIIEEAFFLATSGRPGPVLVDVPKDIQQQLAIPNWEQAMRLPGYMSRMPKPPEDSHLEQIVRLISESKKPVLYVGGGCLNSSDELGRFVELTGIPVASTLMGLGSYPCDDELSLHMLGMHGTVYANYAVEHSDLLLAFGVRFDDRVTGKLEAFASRAKIVHIDIDSAEIGKNKTPHVSVCGDVKLALQGMNKVLENRAEELKLDFGVWRNELNVQKQKFPLSFKTFGEAIPPQYAIKVLDELTDGKAIISTGVGQHQMWAAQFYNYKKPRQWLSSGGLGAMGFGLPAAIGASVANPDAIVVDIDGDGSFIMNVQELATIRVENLPVKVLLLNNQHLGMVMQWEDRFYKANRAHTFLGDPAQEDEIFPNMLLFAAACGIPAARVTKKADLREAIQTMLDTPGPYLLDVICPHQEHVLPMIPNGGTFNDVITEGDGRIKY |  |  |  |  |  | 5.8 ± 0.4 | 32.0 ± 1.4 ΔE/min mg |  |
